Experimental data taken from ChEMBL document CHEMBL4651402, “Screening of ~5500 FDA-approved drugs and clinical candidates for anti-SARS-CoV-2 activity” (2021).

Test system: SARS-CoV-2
Experiment: microbe, parasite or virus in culture
Conditions: Severe acute respiratory syndrome coronavirus 2, Vero C1008, 48 h

Row | SMILES | IC50 | IC50 (read-out: pIC50 (converted))
1 | CO[C@H]1/C=C\O[C@@]2(C)Oc3c(C)c(O)c4c(O)c(c(/C=N/N5CCN(C6CCCC6)CC5)c(O)c4c3C2=O)NC(=O)/C(C)=C\C=C/[C@H](C)[C@H](O)[C@@H](C)[C@@H](O)[C@@H](C)[C@H](OC(C)=O)[C@@H]1C | > 20 µM | > 20 µM
2 | NC1CCCCC1N (configuration not stated) | > 20 µM | > 20 µM
3 | COc1ccc(CC2c3cc(OC)c(OC)cc3CC[N+]2(C)CCC(=O)OCCCCCOC(=O)CC[N+]2(C)CCc3cc(OC)c(OC)cc3C2Cc2ccc(OC)c(OC)c2)cc1OC (configuration not stated) | > 20 µM | > 20 µM
4 | Cc1nccc2c1[nH]c1cc(O)ccc12 | > 20 µM | > 20 µM
5 | NC(CSCC(=O)O)C(=O)O (configuration not stated) | > 20 µM | > 20 µM
6 | CC(C)C(C)/C=C/C(C)C1CCC2C3=CC=C4CC(O)CCC4(C)C3CCC21C (configuration not stated) | > 20 µM | > 20 µM
7 | CC(=O)N[C@@H](CC(=O)N[C@H](CCC(=O)O)C(=O)O)C(=O)O | > 20 µM | > 20 µM
8 | Cc1c(O)c(=O)n(-c2ccccc2)n1C | > 20 µM | > 20 µM
9 | Cc1ccccn1 | > 20 µM | > 20 µM
10 | OC(CCN1CCCCC1)(c1ccccc1)C1C[C@@H]2C=C[C@H]1C2 (some centres not stated) | > 20 µM | > 20 µM
11 | CC(=O)N[C@H]1[C@H]([C@H](O)[C@H](O)CO)O[C@](O)(C(=O)O)C[C@@H]1O | > 50.1 µM | > 50.1 µM
12 | CC(CNC(=O)c1cccnc1)NC(=O)c1cccnc1 (configuration not stated) | > 20 µM | > 20 µM
13 | CC1CCC(C(C)C)C(=O)C1 (configuration not stated) | > 20 µM | > 20 µM
14 | CC12CCC(C(=O)N(CCCCN3CCN(c4ccccn4)CC3)C1=O)C2(C)C (configuration not stated) | > 20 µM | > 20 µM
15 | N[C@H](Cn1ccc(=O)c(O)c1)C(=O)O | > 20 µM | > 20 µM
16 | CC1(C)OC2CC(=O)OCC23C1CC(=O)C1(C)C3CCC2(C)C(c3ccoc3)OC(=O)C3OC321 (configuration not stated) | > 20 µM | > 20 µM
17 | C=CCC(N)c1ccccc1-c1noc2ccccc12 (configuration not stated) | > 20 µM | > 20 µM
18 | CC(=O)SC[C@@H](C)C(=O)N1CCC[C@H]1C(=O)N[C@@H](Cc1ccccc1)C(=O)O | > 20 µM | > 20 µM

Row | SMILES | IC50 | IC50 (read-out: pIC50 (converted))
19 | CC(C)(CO)C(O)C(=O)NCCCC(=O)O (configuration not stated) | > 20 µM | > 20 µM
20 | NC(=O)c1nc(F)cnc1O | > 50.1 µM | > 50.1 µM
21 | CC(=O)C[C@@H](c1ccccc1)c1c(O)c2ccccc2oc1=O | > 20 µM | > 20 µM
22 | COc1cc2ncnc(Nc3cccc(Br)c3)c2cc1OC | > 20 µM | > 20 µM
23 | COC(=O)N[C@H](C(=O)N1CCC[C@H]1c1ncc(-c2ccc(-c3ccc(-c4cnc([C@@H]5CC6(CN5C(=O)[C@@H](NC(=O)OC)C(C)C)OCCO6)[nH]4)cc3)cc2)[nH]1)C(C)C | > 20 µM | > 20 µM
24 | CC12CCC3C(CCC4(O)CC(O)CCC34C=O)C1(O)CCC2C1=CC(=O)OC1 (configuration not stated) | > 20 µM | > 20 µM
25 | CC(=O)c1cnc2ccc(-c3cc(Cl)c(O)c(Cl)c3)nc2c1N[C@H]1CC[C@H](CN(C)C)CC1 | > 20 µM | > 20 µM
26 | CC(C)Cc1sc(-c2nccs2)nc1C(=O)NCc1ccc(F)cc1 | > 20 µM | > 20 µM
27 | COc1cc2c(cc1Cc1cccc(Cl)c1F)c(=O)c(C(=O)O)cn2[C@@H](CO)C(C)C | > 20 µM | > 20 µM
28 | Nc1ccc(F)cc1NC(=O)c1ccc(CNC(=O)/C=C/c2cccnc2)cc1 | > 20 µM | > 20 µM
29 | N/C=C1\Cc2ccccc2C1=O | > 20 µM | > 20 µM
30 | C=C(C)C1CC=C(CO)CC1 (configuration not stated) | > 20 µM | > 20 µM
31 | O=C(O)c1ccc(NC2OC(CO)C(O)C(O)C2O)cc1 (configuration not stated) | > 20 µM | > 20 µM
32 | CC(C)[N@+]1(C)C2CC[C@H]1C[C@@H](OC(=O)C(CO)c1ccccc1)C2 (some centres not stated) | > 20 µM | > 20 µM
33 | CC1=C(O)C(=O)C=C2C1=CC=C1C3(C)CC[C@@]4(C)CC[C@@](C)(C(=O)O)C[C@H]4[C@]3(C)CC[C@@]21C (some centres not stated) | > 20 µM | > 20 µM
34 | CCC12CCN(CC3CCC3)[C@@H](Cc3ccc(O)cc31)C2(C)C | > 20 µM | > 20 µM
35 | CC(=O)[C@H]1CC[C@H]2[C@@H]3CCC4C[C@@H](O)CC[C@]4(C)[C@H]3CC[C@]12C (some centres not stated) | > 20 µM | > 20 µM
36 | C=C[C@@](C)(O)CC[C@H]1C(=C)CCC2[C@@](C)(CO)CCC[C@@]21C (some centres not stated) | > 20 µM | > 20 µM
